In brackets after ≈: the same amount, converted by molar mass. Each block holds one compound with its values, some of them ahead of it.
How the values were obtained:
S. epidermidis = experiment: Standard broth dilution assay (MIC), S. epidermidis; type: cell-based; settings: Staphylococcus epidermidis
P. aeruginosa = settings: FIG. 15(b)
Method: The sensor was placed inside an incubator at 37° C. while automatically measuring the acoustic spectrum every 15 minutes for 3 hours.

[1] = test system: VP16-sensitive ALL cell line (CEM); experiment: MZOnano-QCM 48-hour monitoring of drug sensitive ALL (CEM) cells; type: cell-based
Method: (§1) The third example uses the drug VP16 (also known as etoposide, an anticancer agent), VP16-sensitive ALL cell line (CEM) and its VP16-resistant derivative cell line (CEM-V1) as a model for monitoring the effect of anticancer agents on the growth of cancer cells using the MZOnano-QCM sensor device, where the Mg composition x in MZO is 0.03.
For all of the experiments in this example, an initial seeding density of 4×10^5 cells in 2 mL of medium is used, the leukemia cell growth using the MZOnano-QCM is monitored dynamically for 48 hours. The drug (VP16) was introduced into the cell culture after 4 hours after the initial seeding. With reference to FIG. 7, the time-dependent frequency shift of the sensor for the entire 48-hour monitoring period of the drug sensitive CEM cells is shown. In the no-drug case, the frequency shift increases exponentially from 0-40 hours (indicating exponential cell accumulation on the sensing area) and then the frequency shift rate decreases showing saturation of the cell growth. In the case where the drug is introduced into the cell culture in the device, it is observed that the cells continue to grow after the drug has been introduced (4 hours after initial seeding), however, it is seen that the drug has taken effect 16 hours after the drug has been introduced.

[2] = test system: VP16-resistant derivative cell line (CEM-V1); experiment: MZOnano-QCM 48-hour monitoring of drug resistant ALL (CEM-V1) cells; type: cell-based
Source text: as §1
The same experiment can be repeated on drug resistant CEM leukemia cells (CEM-V1) using both the MZOnano-QCM sensor and the viability analyzer, and the monitoring can be conducted for 48 hours. […] The drug was added into the cell culture at 4 hours after the initial seeding of 4×10^5 cells. […] The various configurations used in the example in FIG. 11 are the same as those described with respect to FIG. 8, and the various configurations used in the example in FIG. 12 are the same as those described with respect to FIG. 9.

S. cerevisiae (yeast) [3] = experiment: MZOnano-QCM monitoring of antifungal drug effects on yeast; type: cell-based; settings: drug introduced at 330 min after initial growth seeding
Source text: (§2) The result using various embodiments in this patent document accurately detects both drug effects in a rapid manner.
(§3) This is due to the fact that the spectroscopic method relies on light absorption by the suspended cells, and dead yeast cells remain in suspension, thus contributing to the absorption.

resistant E. coli = experiment: MZOnano-QCM detection of antimicrobial resistance of resistant E. coli; type: cell-based; settings: ampicillin-resistant cells, 256 μg/mL
Method: (§4) The first example illustrates the application of a magnesium zinc oxide (MZO) nanostructure-modified quartz crystal microbalance (MZOnano-QCM) biosensor disclosed in this document with reference to FIGS. 1A and 1B to dynamically monitor antibiotic effects on sensitive and resistant E. coli cells. MZO-nanostructures were grown on a standard QCM top-electrode using metal-organic chemical-vapor deposition. ZnO and MZO nanostructured-films are chosen for their multi-functionality and biocompatibility. Their surface-wettability and morphology can be controlled, offering high-sensitivity to various biological/biochemical species. MZO can withstand a larger pH range than ZnO does. Combining advantages of MZO nanostructures with the dynamic impedance spectrum capability of QCM makes MZOnano-QCM a highly-sensitive dynamic biosensor well-suited for AMR detection. The growth of E. coli on ZnO and MZO nanostructures was determined by 90-minute incubation.
(§5) FIGS. 4A-4D show the detection of antibiotic effects on E. coli using regular QCM, ZnOnano-QCM and MZOnano-QCM. The regular QCM failed detection due to low sensitivity while both ZnOnano- and MZOnano-QCM enable accurate detection of bacterial count during active growth though frequency shifts (Δf). The MZOnano-QCM offered four-fold higher sensitivity than ZnOnano-QCM. […]

[4] = test system: antibiotic-sensitive E. coli; experiment: MZOnano-QCM detection of antibiotic effects on sensitive E. coli; type: cell-based; settings: ampicillin-sensitive cells, 256 μg/mL
Method: as §4, §5

S. cerevisiae (yeast) [5] = experiment: Spectrophotometry (OD600) monitoring of antifungal drug effects on yeast; type: cell-based; settings: patent calls the identification incorrect
Source text: as §2, §3

MIC (S. epidermidis): 0.05 µg/mL (≈ 0.151 µM)
SMILES: O=C(O)c1cn(C2CC2)c2cc(N3CCNCC3)c(F)cc2c1=O [ciprofloxacin]
motional resistance in presence or absence of drug (P. aeruginosa): dramatically different

SMILES: COc1cc([C@@H]2c3cc4c(cc3[C@@H](O[C@@H]3O[C@@H]5CO[C@@H](C)O[C@H]5[C@H](O)[C@H]3O)[C@H]3COC(=O)[C@H]23)OCO4)cc(OC)c1O [VP16, etoposide]
cell response (frequency shift) after drug took effect ([1]; 20 hours to 48 hours): cells start to die (or stop to proliferate)
time after drug introduction at which drug has taken effect ([1]; drug introduced 4 hours after initial seeding of 4×10^5 cells): 16 h
cell response (frequency shift trend) in the presence of the drug ([2]; 48 hours monitoring): continuous cell growth
time after addition of drug at which frequency shift started to decrease compared to no-drug control ([2]; drug added 4 hours after initial seeding of 4×10^5 cells): ~15 h

SMILES: Clc1ccc(COC(Cn2ccnc2)c2ccc(Cl)cc2Cl)c(Cl)c1 (stereo not drawn) [miconazole]
drug effect on yeast detected by sensor (S. cerevisiae (yeast) [3]): growth inhibition effects

SMILES: CC1(C)S[C@@H]2[C@H](NC(=O)[C@H](N)c3ccccc3)C(=O)N2[C@H]1C(=O)O [ampicillin]
Δf response upon treatment (resistant E. coli): continued increasing
time within which Δf declined upon treatment [4]: ≤ 10 min
time within which Δf stopped increasing upon treatment [4]: ≤ 5 min

SMILES: C[C@@H]1[C@H](O)[C@@H](C)/C=C/C=C/C=C/C=C/C=C/C=C/C=C/[C@H](O[C@@H]2O[C@H](C)[C@@H](O)[C@H](N)[C@@H]2O)C[C@@H]2O[C@](O)(C[C@@H](O)C[C@@H](O)[C@H](O)CC[C@@H](O)C[C@@H](O)CC(=O)O[C@H]1C)C[C@H](O)[C@H]2C(=O)O [amphotericin]
drug effect on yeast as identified by OD600 method (S. cerevisiae (yeast) [5]): fungi-static
drug effect on yeast detected by sensor (S. cerevisiae (yeast) [3]): cell-killing effects
